The values below come from patent US7632829B2, “Diazepan derivatives” (Hoffmann-La Roche Inc., priority 2006, dated 2009).

Counter-ions that a name gives are not always drawn.

This assay concerns the target T1, human chemokine receptor 2 isoform B (Homo sapiens, UniProt P41597).
T1 construct: host or cells: CHOK1-CCR2B-A5 (CHO-K1)
T1 sequence (P41597 1-360 isoform P41597-2): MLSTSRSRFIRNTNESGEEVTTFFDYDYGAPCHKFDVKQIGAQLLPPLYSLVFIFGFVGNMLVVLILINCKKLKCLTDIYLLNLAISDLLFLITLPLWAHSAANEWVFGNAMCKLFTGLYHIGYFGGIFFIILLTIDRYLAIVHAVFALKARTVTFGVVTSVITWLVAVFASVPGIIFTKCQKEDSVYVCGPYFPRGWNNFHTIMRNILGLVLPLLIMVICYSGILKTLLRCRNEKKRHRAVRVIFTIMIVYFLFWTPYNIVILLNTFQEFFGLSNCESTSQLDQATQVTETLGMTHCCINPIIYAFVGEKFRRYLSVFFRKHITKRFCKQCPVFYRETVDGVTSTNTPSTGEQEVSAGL
Description: Calcium mobilization assay (FLIPR, CHOK1-CCR2B-A5 cells, 20 nM MCP-1). The format is cell-based. As to conditions: Ca mobilisation assay, CCR2, antagonist activity vs 20 nM MCP-1. As to the method:
CHOK1-CCR2B-A5 cells (from Euroscreen) stably overexpressing the human chemokine receptor 2 isoform B were cultured in Nutrient Hams F12 medium supplemented with 5% FBS, 100 U/ml penicillin, 100 μg/ml streptomycin, 400 μg/ml G418 and 5 μg/ml puromycin.
For the assay cells were grown overnight in 384-well black clear flat bottom polystyrene plates (Costar) at 37° C. at 5% CO2. After washing with DMEM, 20 mM Hepes, 2.5 mM probenecid, 0.1% BSA (DMEM assay buffer) cells were loaded with 4 μM Fluo-4 in the same DMEM assay buffer for 2 hours at 30° C. Excess dye was removed and cells were washed with DMEM assay buffer. 384-well compound plates were prepared with DMEM assay buffer/0.5% DMSO with or without various concentrations of test compounds. Usually compounds were tested for agonist and antagonist activity.
Test compounds were added to the assay plate and agonist activity was monitored as fluorescence for 80 seconds with a FLIPR (488 nm excitation; 510-570 nm emission; Molecular Devices). After 20-30 min. of incubation at 30° C., 20 nM MCP-1 (R&D; Roche) was added and fluorescence was monitored again for 80 seconds. Increases in intracellular calcium are reported as maximum fluorescence after agonist exposure minus basal fluorescence before exposure. Antagonist activity is indicated as inhibitor concentration required for 50% inhibition of specific calcium increases.
Usually IC50 stands for the concentration at which inhibition is half-maximal. In the case of `O=C(/C=C/c1ccc(Cl)c(Cl)c1)N1CCC(=O)N(CCCCN2CC[C@H](O)[C@H](O)C2)CC1` (racemic) [Example 163, 1-[(E)-3-(3,4-Dichloro-phenyl)-acryloyl]-4-[4-((3RS,4SR)-3,4-dihydroxy-piperidin-1-yl)-butyl]-[1,4]diazepan-5-one hydrochlorid], the IC50 amounted to 560 nM.

With `CC1C(O)CCCN1CCCN1CCN(C(=O)C=Cc2ccc(F)c(Cl)c2)CCC1=O` (mixture of isomers) [Example 208, (rac,trans)-1-[(E)-3-(3-Chloro-4-fluoro-phenyl)-acryloyl]-4-[3-(3-hydroxy-2-methyl-piperidin-1-yl)-propyl]-[1,4]diazepan-5-one], the IC50 is 780 nM.

For `C[C@@H]1CN(CCCCN2CCN(C(=O)/C=C/c3ccc(Cl)c(Cl)c3)CCC2=O)CC[C@@H]1O` (racemic) [Example 458], the IC50 is 148 nM.

Turning to `O=C(/C=C/c1ccc(Cl)c(Cl)c1)N1CCC(=O)N(CCCN2CCCC(CO)C2)CC1` (racemic) [Example 228], the IC50 is 149 nM.

`CC1(C)CCN(CCCN2CCN(C(=O)/C=C/c3ccc(Cl)c(Cl)c3)CCC2=O)CC1O` (racemic) [Example 274]: the 50% inhibitory concentration (IC50) is 4 nM.

In the case of `O=C(/C=C/c1ccc2ccccc2c1)N1CCC(=O)N(CCN2CCCC2)CC1` [Example 25, 1-(E)-(3-Naphthalen-2-yl-acryloyl)-4-(2-pyrrolidin-1-yl-ethyl)-[1,4]diazepan-5-one], the IC50 amounted to 1020 nM.

For the molecule `CN(CCN1CCN(C(=O)/C=C/c2ccc(Cl)c(Cl)c2)CCC1=O)C1CCOCC1` [Example 134, 1-[(E)-3-(3,4-Dichloro-phenyl)-acryloyl]-4-{3-[methyl-(tetrahydro-pyran-4-yl)-amino]-ethyl}-[1,4]diazepan-5-one], the IC50 was 600 nM.

With `O=C(C=Cc1ccc(Cl)c(Cl)c1)N1CCC(=O)N(CCCN2CCC(O)C(F)C2)CC1` (mixture of isomers) [Example 231, (rac,trans)-1-[(E)-3-(3,4-Dichloro-phenyl)-acryloyl]-4-[3-(3-fluoro-4-hydroxy-piperidin-1-yl)-propyl]-[1,4]diazepan-5-one], the IC50 was 218 nM.

As for `CC(C)N1CCC(NCCN2CCN(C(=O)/C=C/c3ccc(Cl)c(Cl)c3)CCC2=O)CC1` [Example 136, 1-[(E)-3-(3,4-Dichloro-phenyl)-acryloyl]-4-[2-(1-isopropyl-piperidin-4-ylamino)-ethyl]-[1,4]diazepan-5-one], the IC50 was found to be 688 nM.

As for `O=C(/C=C/c1ccc(Cl)c(Cl)c1)N1CCC(=O)N(CCCN2CCC(F)CC2)CC1` [Example 74, 1-[(E)-3-(3,4-Dichloro-phenyl)-acryloyl]-4-[3-(4-fluoro-piperidin-1-yl)-propyl]-[1,4]diazepan-5-one], the IC50 was determined as 175 nM.

Take `CC(=O)NC1CCN(CCCCN2CCN(C(=O)/C=C/c3ccc(Cl)c(Cl)c3)CCC2=O)CC1` [Example 453]: the half-maximal inhibitory concentration (IC50) came out at 33 nM.

Take `O=C(/C=C/c1ccc(Cl)c(F)c1)N1CCC(=O)N(CCCCN2CCC3(CC3)C(O)C2)CC1` (stereo not drawn) [Example 416, 1-[(E)-3-(4-Chloro-3-fluoro-phenyl)-acryloyl]-4-[4-((-)-4-hydroxy-6-aza-spiro[2.5]oct-6-yl)-butyl]-[1,4]diazepan-5-one]: the IC50 was 11 nM.

As for `O=C(/C=C/c1ccc(F)c(Cl)c1)N1CCC(=O)N(C[C@@H](O)CN2CCC3(CC3)C(O)C2)CC1` (stereo partly drawn) [Example 336, 1-[(E)-3-(3-Chloro-4-fluoro-phenyl)-acryloyl]-4-[(S)-2-hydroxy-3-((−)-4-hydroxy-6-aza-spiro[2.5]oct-6-yl)-propyl]-[1,4]diazepan-5-one], the IC50 was found to be 3 nM.

Take `O=C(/C=C/c1cnc(Cl)c(Cl)c1)N1CCC(=O)N(CCCN2CCC3(CC3)C(O)C2)CC1` (stereo not drawn) [Example 497, 1-[(E)-3-(5,6-Dichloro-pyridin-3-yl)-acryloyl]-4-[3-((-)-4-hydroxy-6-aza-spiro[2.5]oct-6-yl)-propyl]-[1,4]diazepan-5-one]: the IC50 came to 26 nM.

As to `COCC1CCCN(CCCCN2CCN(C(=O)/C=C/c3ccc(Cl)c(Cl)c3)CCC2=O)C1` (racemic) [Example 432], the IC50 was determined as 16 nM.

In the case of `CCOC(=O)NC1CCN(CCCN2CCN(C(=O)/C=C/c3ccc(Cl)c(Cl)c3)CCC2=O)CC1` [Example 82, [1-(3-{4-[(E)-3-(3,4-Dichloro-phenyl)-acryloyl]-7-oxo-[1,4]diazepan-1-yl}-propyl)-piperidin-4-yl]-carbamic acid ethyl ester], the half-inhibitory concentration (IC50) is 297 nM.

With `O=C(/C=C/c1ccc(Cl)c(Cl)c1)N1CCC(=O)N(CCCN2CCC(O)(c3cccnc3)CC2)CC1` [Example 70, 1-[(E)-3-(3,4-Dichloro-phenyl)-acryloyl]-4-[3-(4′-hydroxy-3′,4′,5′,6′-tetrahydro-2′H-[3,4′]bipyridinyl-1′-yl)-propyl]-[1,4]diazepan-5-one], the IC50 was determined as 146 nM.

`CC1CC(O)CN(CCCCN2CCN(C(=O)C=Cc3ccc(Cl)c(Cl)c3)CCC2=O)C1` (mixture of isomers) [Example 482, (rac,cis)-1-[(E)-3-(3,4-Dichloro-phenyl)-acryloyl]-4-[4-(3-hydroxy-5-methyl-piperidin-1-yl)-butyl]-[1,4]diazepan-5-one]: the IC50 was 13 nM.

As to `CC1(CO)CCCCN1CCCN1CCN(C(=O)/C=C/c2ccc(Cl)c(Cl)c2)CCC1=O` (racemic) [Example 250], the IC50 stood at 812 nM.

Regarding `C[C@@H]1C[C@H](O)CN(C[C@H](O)CN2CCN(C(=O)/C=C/c3ccc(F)c(Cl)c3)CCC2=O)C1` (mixture of isomers) [Example 344, 1-[(E)-3-(3-Chloro-4-fluoro-phenyl)-acryloyl]-4-[(S)-2-hydroxy-3-(cis-3-hydroxy-5-methyl-piperidin-1-yl)-propyl]-[1,4]diazepan-5-one], the IC50 came to 26 nM.

`O=C(/C=C/c1ccc(Cl)c(Cl)c1)N1CCC(=O)N(CCCCN2CC[C@@H](O)[C@@H](F)C2)CC1` (racemic) [Example 430, (rac,cis)-1-[(E)-3-(3,4-Dichloro-phenyl)-acryloyl]-4-[4-(3-fluoro-4-hydroxy-piperidin-1-yl)-butyl]-[1,4]diazepan-5-one]: the IC50 worked out at 352 nM.

`O=C(/C=C/c1ccc(Cl)c(Cl)c1)N1CCC(=O)N(CCNC2CCOCC2)CC1` [Example 103, 1-[(E)-3-(3,4-Dichloro-phenyl)-acryloyl]-4-[3-(tetrahydro-pyran-4-ylamino)-ethyl]-[1,4]diazepan-5-one]: the IC50 worked out at 388 nM.

Turning to `O=C(/C=C/c1ccc(Cl)c(Cl)c1)N1CCC(=O)N(CC(O)CN2CCCCC2CO)CC1` (racemic) [Example 290], the IC50 stood at 199 nM.

Consider `COC[C@H]1CCN(CCCN2CCN(C(=O)/C=C/c3ccc(F)c(Cl)c3)CCC2=O)C[C@H]1O` (racemic) [Example 216], for which the IC50 is 726 nM.

Take `C[C@]1(CO)CCN(CCCN2CCN(C(=O)/C=C/c3ccc(F)c(Cl)c3)CCC2=O)C[C@H]1O` (racemic) [Example 219]: the concentration for half-maximal inhibition (IC50) turned out to be 45 nM.

Regarding `O=C(/C=C/c1ccc(Cl)c(Cl)c1)N1CCC(=O)N(CCCCN2CC[C@@H](O)[C@H](O)C2)CC1` (racemic) [Example 164, 1-[(E)-3-(3,4-Dichloro-phenyl)-acryloyl]-4-[4-((3RS,4RS)-3,4-dihydroxy-piperidin-1-yl)-butyl]-[1,4]diazepan-5-one hydrochloride], the IC50 was found to be 544 nM.

With `O=C1NCC2(CCN(CCCN3CCN(C(=O)/C=C/c4ccc(F)c(Cl)c4)CCC3=O)CC2)O1` [Example 195], the half-inhibitory concentration (IC50) turned out to be 453 nM.

`CC1CCCN1CCN1CCN(C(=O)/C=C/c2ccc(Cl)c(Cl)c2)CCC1=O` (racemic) [Example 348]: the IC50 is 765 nM.

`CC1(CO)CCN(CC(O)CN2CCN(C(=O)C=Cc3ccc(F)c(Cl)c3)CCC2=O)CC1O` [Example 340, 1-[(E)-3-(3-Chloro-4-fluoro-phenyl)-acryloyl]-4-[(S)-2-hydroxy-3-((cis)-3-hydroxy-4-hydroxymethyl-4-methyl-piperidin-1-yl)-propyl]-[1,4]diazepan-5-one]: the IC50 came out at 19 nM.

As to `O=C(/C=C/c1ccc(Cl)c(Cl)c1)N1CCC(=O)N(CCNC2CCCC2)CC1` [Example 108, 4-[3-(Cyclopentyl-amino)-ethyl]-1-[(E)-3-(3,4-dichloro-phenyl)-acryloyl]-[1,4]diazepan-5-one], the IC50 is 1200 nM.

As to `CN(CCO)CCCCN1CCN(C(=O)/C=C/c2ccc(Cl)c(Cl)c2)CCC1=O` [Example 460], the IC50 is 832 nM.

For the molecule `O=C(/C=C/c1ccc(Cl)c(Cl)c1)N1CCC(=O)N(CCCN2CCN(C3CC3)CC2)CC1` [Example 241], the IC50 worked out at 765 nM.

For the molecule `NC(=O)COC1CCC(CO)N(CCCCN2CCN(C(=O)/C=C/c3ccc(Cl)c(Cl)c3)CCC2=O)C1` (racemic) [Example 485], the IC50 is 75 nM.
